Assay results as given in US10806785B2, “Immunomodulator compounds and methods of use” (Incyte Corporation, priority 2016, dated 2020).

Target: PD-1/PD-L1 (Homo sapiens (Human), UniProt Q9NZQ7)
Assay: PD-1/PD-L1 binding assay (HTRF)
Method: The assays were conducted in a standard black 384-well polystyrene plate with a final volume of 20 μL. Inhibitors were first serially diluted in DMSO and then added to the plate wells before the addition of other reaction components. The final concentration of DMSO in the assay was 1%. The assays were carried out at 25° C. in the PBS buffer (pH 7.4) with 0.05% Tween-20 and 0.1% BSA. Recombinant human PD-L1 protein (19-238) with a His-tag at the C-terminus was purchased from AcroBiosystems (PD1-H5229). Recombinant human PD-1 protein (25-167) with Fc tag at the C-terminus was also purchased from AcroBiosystems (PD1-H5257). PD-L1 and PD-1 proteins were diluted in the assay buffer and 10 μL was added to the plate well. Plates were centrifuged and proteins were preincubated with inhibitors for 40 minutes. The incubation was followed by the addition of 10 μL of HTRF detection buffer supplemented with Europium cryptate-labeled anti-human IgG (PerkinElmer-AD0212) specific for Fc and anti-His antibody conjugated to SureLight®-Allophycocyanin (APC, PerkinElmer-AD0059H). After centrifugation, the plate was incubated at 25° C. for 60 min. before reading on a PHERAstar FS plate reader (665 nm/620 nm ratio). Final concentrations in the assay were […], 10 nM PD-L1, 1 nM europium anti-human IgG and 20 nM anti-His-Allophycocyanin. IC50 determination was performed by fitting the curve of percent control activity versus the log of the inhibitor concentration using the GraphPad Prism 5.0 software.

PD-1/PD-L1, sequence (Q9NZQ7 19-238): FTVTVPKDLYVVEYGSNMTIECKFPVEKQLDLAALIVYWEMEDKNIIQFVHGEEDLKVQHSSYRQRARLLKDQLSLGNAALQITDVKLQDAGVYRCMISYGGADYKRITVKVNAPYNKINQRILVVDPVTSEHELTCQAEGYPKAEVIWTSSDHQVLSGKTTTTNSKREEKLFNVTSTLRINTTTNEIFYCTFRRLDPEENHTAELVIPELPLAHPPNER

Row | IC50 | SMILES
1 | ≤ 10 nM | Cc1c(NC(=O)c2nc3c(n2C)CCN(C[C@@H](C)O)C3)cccc1-c1cccc(NC(=O)c2nc3c(n2C)CCN(C2CCC(C)(C(=O)O)CC2)C3)c1Cl (mixture of isomers) [Compound 141, (R)-4-(2-((2-chloro-3′-(5-(2-hydroxypropyl)-1-methyl-4,5,6,7-tetrahydro-1H-imidazo[4,5-c]pyridine-2-carboxamido)-2′-methyl-[1,1′-biphenyl]-3-yl)carbamoyl)-1-methyl-1,4,6,7-tetrahydro-5H-imidazo[4,5-c]pyridin-5-yl)-1-methylcyclohcxane-1-carboxylic acid]
2 | ≤ 10 nM | Cc1c(NC(=O)c2nc3c(n2C)CCN(C2CCOCC2)C3)cccc1-c1cccc(NC(=O)c2nc3c(n2C)CCN(C2CCC(C)(C(=O)O)CC2)C3)c1Cl (single isomer, unassigned) [142 (compound 142-1), 4-(2-((2-chloro-2′-methyl-3′-(1-methyl-5-(tetrahydro-2H-pyran-4-yl)-4,5,6,7-tetrahydro-1H-imidazo[4,5-c]pyridine-2-carboxamido)-[1,1′-biphenyl]-3-yl)carbamoyl)-1-methyl-1,4,6,7-tetrahydro-5H-imidazo[4,5-c]pyridin-5-yl)-1-methylcyclohexane-1-carboxylic acid]
3 | ≤ 10 nM | Cc1c(NC(=O)c2nc3c(n2C)CCN(C[C@H](C)O)C3)cccc1-c1cccc(NC(=O)c2nc3c(n2C)CCN(C2CCC(C)(C(=O)O)CC2)C3)c1Cl (single isomer, unassigned) [143 (compound 143-1)]
4 | ≤ 10 nM | Cn1c(C(=O)Nc2cccc(-c3cccc(NC(=O)c4nc5c(n4C)CCN(C4CCC(O)CC4)C5)c3Cl)c2Cl)nc2c1CCN(CC13CCC(C(=O)O)(CC1)C3)C2 (single isomer, unassigned) [183 (compound 183-1), 4-((2-(2,2′-dichloro-3′-(5-(4-hydroxycyclohexyl)-1-methyl-4,5,6,7-tetrahydro-1H-imidazo[4,5-c]pyridine-2-carboxamido)biphenyl-3-ylcarbamoyl)-1-methyl-6,7-dihydro-1H-imidazo[4,5-c]pyridin-5(4H)-yl)methyl)bicyclo[2.2.1]heptane-1-carboxylic acid]
5 | ≤ 10 nM | CN1CCc2c(nc(C(=O)Nc3cccc(-c4cccc(NC(=O)c5nc6c(n5C)CCN(CC5CCC(C)(C(=O)O)CC5)C6)c4Cl)c3Cl)n2C)C1 (single isomer, unassigned) [Compound 82-1, 4-((2-((2,2′-dichloro-3′-(1,5-dimethyl-4,5,6,7-tetrahydro-1H-imidazo[4,5-c]pyridine-2-carboxamido)-[1,1′-biphenyl]-3-yl)carbamoyl)-1-methyl-1,4,6,7-tetrahydro-5H-imidazo[4,5-c]pyridin-5-yl)methyl)-1-methylcyclohexane-1-carboxylic acid]
6 | ≤ 10 nM | Cc1c(NC(=O)c2nc3c(n2C)CCN(C)C3)cccc1-c1cccc(NC(=O)c2nc3c(n2C)CCN(CC2CCC(C)(C(=O)O)CC2)C3)c1Cl (single isomer, unassigned) [Compound 120-1, 4-((2-((2-chloro-3′-(1,5-dimethyl-4,5,6,7-tetrahydro-1H-imidazo[4,5-c]pyridine-2-carboxamido)-2′-methyl-[1,1′-biphenyl]-3-yl)carbamoyl)-1-methyl-1,4,6,7-tetrahydro-5H-imidazo[4,5-c]pyridin-5-yl)methyl)-1-methylcyclohexane-1-carboxylic acid]
7 | ≤ 10 nM | Cc1c(NC(=O)c2nc3c(n2C)CCN(C2CCC(O)CC2)C3)cccc1-c1cccc(NC(=O)c2nc3c(n2C)CCN(CC[C@H]2CC[C@H](C(=O)O)CC2)C3)c1Cl (single isomer, unassigned) [Compound 134-1, Trans-4-(2-(2-(2-chloro-3′-(5-(4-hydroxycyclohexyl)-1-methyl-4,5,6,7-tetrahydro-1H-imidazo[4,5-c]pyridine-2-carboxamido)-2′-methylbiphenyl-3-ylcarbamoyl)-1-methyl-6,7-dihydro-1H-imidazo[4,5-c]pyridin-5(4H)-yl)ethyl)cyclohexane-1-carboxylic Acid]
8 | ≤ 10 nM | Cc1c(NC(=O)c2nc3c(n2C)CCN(C2CCC(O)CC2)C3)cccc1-c1cccc(NC(=O)c2nc3c(n2C)CCN(C[C@H]2CC[C@@H](C(=O)O)CC2)C3)c1Cl (single isomer, unassigned) [Compound 138-1, cis-4-((2-((2-chloro-3′-(5-(4-hydroxycyclohexyl)-1-methyl-4,5,6,7-tetrahydro-1H-imidazo[4,5-c]pyridine-2-carboxamido)-2′-methyl-[1,1′-biphenyl]-3-yl)carbamoyl)-1-methyl-1,4,6,7-tetrahydro-5H-imidazo[4,5-c]pyridin-5-yl)methyl)cyclohexane-1-carboxylic acid]
9 | ≤ 10 nM | Cn1c(C(=O)Nc2cccc(-c3cccc(NC(=O)c4nc5c(n4C)CCN(C4CCC(O)CC4)C5)c3Cl)c2Cl)nc2c1CCN(C[C@H]1CC[C@H](C(=O)O)CC1)C2 (stereo partly drawn) [144 (compound 144-1), trans-4-((2-((2,2′-dichloro-3′-(5-(4-hydroxycyclohexyl)-1-methyl-4,5,6,7-tetrahydro-1H-imidazo[4,5-c]pyridine-2-carboxamido)-[1,1′-biphenyl]-3-yl)carbamoyl)-1-methyl-1,4,6,7-tetrahydro-5H-imidazo[4,5-c]pyridin-5-yl)methyl)cyclohexane-1-carboxylic acid]
10 | ≤ 10 nM | Cn1c(C(=O)Nc2cccc(-c3cccc(NC(=O)c4nc5c(n4C)CCN(C4CCC(O)CC4)C5)c3Cl)c2Cl)nc2c1CCN(C[C@H]1CC[C@@H](C(=O)O)CC1)C2 (stereo partly drawn) [145 (compound 145-1), cis-4-((2-((2,2′-dichloro-3′-(5-(4-hydroxycyclohexyl)-1-methyl-4,5,6,7-tetrahydro-1H-imidazo[4,5-c]pyridine-2-carboxamido)-[1,1′-biphenyl]-3-yl)carbamoyl)-1-methyl-1,4,6,7-tetrahydro-5H-imidazo[4,5-c]pyridin-5-yl)methyl)cyclohexane-1-carboxylic acid]
11 | ≤ 10 nM | Cn1c(C(=O)Nc2cccc(-c3cccc(NC(=O)c4nc5c(n4C)CCN(C4CCC(O)CC4)C5)c3Cl)c2Cl)nc2c1CCN(CC[C@H]1CC[C@H](C(=O)O)CC1)C2 (stereo partly drawn) [146 (compound 146-1), trans-4-(2-(2-((2,2′-dichloro-3′-(5-(4-hydroxycyclohexyl)-1-methyl-4,5,6,7-tetrahydro-1H-imidazo[4,5-c]pyridine-2-carboxamido)-[1,1′-biphenyl]-3-yl)carbamoyl)-1-methyl-1,4,6,7-tetrahydro-5H-imidazo[4,5-c]pyridin-5-yl)ethyl)cyclohexane-1-carboxylic acid]
12 | ≤ 10 nM | Cc1c(NC(=O)c2nc3c(n2C)CCN(C2C4CC5CC2CC(C(=O)O)(C5)C4)C3)cccc1-c1cccc(NC(=O)c2nc3c(n2C)CCN(C)C3)c1Cl (stereo not shown) [175 (compound 175-1), 4-(2-((2′-chloro-3′-(1,5-dimethyl-4,5,6,7-tetrahydro-1H-imidazo[4,5-c]pyridine-2-carboxamido)-2-methyl-[1,1′-biphenyl]-3-yl)carbamoyl)-1-methyl-1,4,6,7-tetrahydro-5H-imidazo[4,5-c]pyridin-5-yl)adamantane-1-carboxylic acid]
13 | ≤ 10 nM | CN1CCc2c(nc(C(=O)Nc3cccc(-c4cccc(NC(=O)c5nc6c(n5C)CCN(CCC5CCC(C(=O)O)CC5)C6)c4Cl)c3Cl)n2C)C1 (stereo not shown) [Compound 77-1, 4-(2-(2-((2,2′-dichloro-3′-(1,5-dimethyl-4,5,6,7-tetrahydro-1H-imidazo[4,5-c]pyridine-2-carboxamido)-[1,1′-biphenyl]-3-yl)carbamoyl)-1-methyl-1,4,6,7-tetrahydro-5H-imidazo[4,5-c]pyridin-5-yl)ethyl)cyclohexane-1-carboxylic acid]
14 | ≤ 10 nM | Cc1c(NC(=O)c2nc3c(n2C)CCN(C2CCCCC2)C3)cccc1-c1cccc(NC(=O)c2nc3c(n2C)CCN(C2CCC(C)(C(=O)O)CC2)C3)c1Cl (stereo not shown) [Compound 139, 4-(2-((2-chloro-3-(5-cyclohexyl-1-methyl-4,5,6,7-tetrahydro-1H-imidazo[4,5-c]pyridine-2-carboxamido)-2′-methyl-[1,1′-biphenyl]-3-yl)carbamoyl)-1-methyl-1,4,6,7-tetrahydro-5H-imidazo[4,5-c]pyridin-5-yl)-1-methylcyclohexane-1-carboxylic acid]
15 | ≤ 10 nM | Cc1c(NC(=O)c2nc3c(n2C)CCN(C2CCC(O)CC2)C3)cccc1-c1cccc(NC(=O)c2nc3c(n2C)CCN(C2CCC(C)(C(=O)O)CC2)C3)c1Cl (stereo not shown) [Compound 140, 4-(2-((2-chloro-3′-(5-(4-hydroxycyclohexyl)-1-methyl-4,5,6,7-tetrahydro-1H-imidazo[4,5-c]pyridine-2-carboxamido)-2′-methyl-[1,1′-biphenyl]-3-yl)carbamoyl)-1-methyl-1,4,6,7-tetrahydro-5H-imidazo[4,5-c]pyridin-5-yl)-1-methylcyclohexane-1-carboxylic acid]
16 | ≤ 10 nM | CN1CCc2c(nc(C(=O)Nc3cccc(-c4cccc(NC(=O)c5nc6c(n5C)CCN(C[C@H]5CC[C@H](C(=O)O)CC5)C6)c4C#N)c3Cl)n2C)C1 [Compound 147, trans-4-((2-((2′-chloro-2-cyano-3′-(1,5-dimethyl-4,5,6,7-tetrahydro-1H-imidazo[4,5-c]pyridine-2-carboxamido)-[1,1′-biphenyl]-3-yl)carbamoyl)-1-methyl-1,4,6,7-tetrahydro-5H-imidazo[4,5-c]pyridin-5-yl)methyl)cyclohexane-1-carboxylic acid]
